Reference: patent US12043632B2, “6-heteroaryloxy benzimidazoles and azabenzimidazoles as JAK2 inhibitors” (Ajax Therapeutics, Inc., priority 2020, dated 2024)

Target: T1, JAK2 (JH1domain-catalytic, Y1007F,Y1008F) kinase (Homo sapiens, UniProt O60674, Y1007F/Y1008F)
T1 construct: JAK2 (JH1domain-catalytic, Y1007F,Y1008F) kinase was expressed as N-terminal fusion; made in house; host or cells: transiently transfected HEK293 cells
Assay: JAK2 JH1 Domain Binding Assay
Conditions: qPCR readout

T1 sequence (O60674 849-1124 Y1007F/Y1008F limits assumed): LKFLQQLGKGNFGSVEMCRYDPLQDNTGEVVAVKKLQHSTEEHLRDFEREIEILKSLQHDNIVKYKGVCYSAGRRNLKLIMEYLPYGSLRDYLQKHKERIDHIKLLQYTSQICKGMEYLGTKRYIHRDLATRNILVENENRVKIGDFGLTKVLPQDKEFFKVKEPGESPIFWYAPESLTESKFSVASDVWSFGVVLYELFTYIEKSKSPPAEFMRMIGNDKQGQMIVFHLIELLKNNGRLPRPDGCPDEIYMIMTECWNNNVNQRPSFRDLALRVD

Row | SMILES | Kd
1 | Cn1cc(C(F)(F)F)cc(Nc2nc3ncc(Oc4cnn5ccnc(N[C@H]6CCOC6)c45)c(Cl)c3n2C)c1=O [Example I-225, (S)-3-((7-chloro-1-methyl-6-((4-((tetrahydrofuran-3-yl)amino)pyrazolo[1,5-a]pyrazin-3-yl)oxy)-1H-imidazo[4,5-b]pyridin-2-yl)amino)-1-methyl-5-(trifluoromethyl)pyridin-2(1H)-one] | < 10 nM
2 | CNc1nccn2ncc(Oc3cnc4nc(Nc5cc(OC6CCN(C)CC6)cc(C(F)(F)F)c5)n(C)c4c3Cl)c12 [Example I-227, 7-chloro-1-methyl-6-((4-(methylamino)pyrazolo[1,5-a]pyrazin-3-yl)oxy)-N-(3-((1-methylpiperidin-4-yl)oxy)-5-(trifluoromethyl)phenyl)-1H-imidazo[4,5-b]pyridin-2-amine] | 10 to 50 nM
3 | CNc1nccn2ncc(Oc3cnc4nc(Nc5cc(O[C@H]6CCN(C)C6)cc(C(F)(F)F)c5)n(C)c4c3Cl)c12 [Example I-228, (S)-7-chloro-1-methyl-6-((4-(methylamino)pyrazolo[1,5-a]pyrazin-3-yl)oxy)-N-(3-((1-methylpyrrolidin-3-yl)oxy)-5-(trifluoromethyl)phenyl)-1H-imidazo[4,5-b]pyridin-2-amine] | 10 to 50 nM
4 | CNc1nccn2ncc(Oc3cnc4nc(Nc5cc(O[C@@H]6CCN(C)C6)cc(C(F)(F)F)c5)n(C)c4c3Cl)c12 [Example I-229, (R)-7-chloro-1-methyl-6-((4-(methylamino)pyrazolo[1,5-a]pyrazin-3-yl)oxy)-N-(3-((1-methylpyrrolidin-3-yl)oxy)-5-(trifluoromethyl)phenyl)-1H-imidazo[4,5-b]pyridin-2-amine] | 10 to 50 nM
5 | CCn1c(C(C)(C)C)ncc(Nc2nc3ncc(Oc4cnn5ccnc(NC)c45)c(Cl)c3n2C)c1=O [Example I-230, 2-(tert-butyl)-5-((7-chloro-1-methyl-6-((4-(methylamino)pyrazolo[1,5-a]pyrazin-3-yl)oxy)-1H-imidazo[4,5-b]pyridin-2-yl)amino)-3-ethylpyrimidin-4(3H)-one] | 50 to 1000 nM
6 | Cc1nc(Nc2nc3ncc(Oc4cnn5ccncc45)c(Cl)c3n2C)nc(C)c1C1CC1 [Example I-231, 7-chloro-N-(5-cyclopropyl-4,6-dimethylpyrimidin-2-yl)-1-methyl-6-(pyrazolo[1,5-a]pyrazin-3-yloxy)-1H-imidazo[4,5-b]pyridin-2-amine] | < 10 nM
7 | Cn1c(Nc2nn3c(c2F)COC(C)(C)C3)nc2ncc(Oc3cnn4ccncc34)c(Cl)c21 [Example I-232, N-(7-chloro-1-methyl-6-(pyrazolo[1,5-a]pyrazin-3-yloxy)-1H-imidazo[4,5-b]pyridin-2-yl)-3-fluoro-6,6-dimethyl-6,7-dihydro-4H-pyrazolo[5,1-c][1,4]oxazin-2-amine] | < 10 nM

Other lines, results leading:

Row | Kd | SMILES
8 | 10 to 50 nM | CNc1nccn2ncc(Oc3cnc4nc(Nc5cc(C(=O)N(C)C)c(F)c(C(F)(F)F)c5)n(C)c4c3Cl)c12 [Example I-226, 5-((7-chloro-1-methyl-6-((4-(methylamino)pyrazolo[1,5-a]pyrazin-3-yl)oxy)-1H-imidazo[4,5-b]pyridin-2-yl)amino)-2-fluoro-N,N-dimethyl-3-(trifluoromethyl)benzamide]
9 | 50 to 1000 nM | CNc1nccn2ncc(Oc3cnc4nc(Nc5cc(C(F)(F)F)c(C#N)n(C)c5=O)n(C)c4c3Cl)c12 [Example I-233, 5-((7-chloro-1-methyl-6-((4-(methylamino)pyrazolo[1,5-a]pyrazin-3-yl)oxy)-1H-imidazo[4,5-b]pyridin-2-yl)amino)-1-methyl-6-oxo-3-(trifluoromethyl)-1,6-dihydropyridine-2-carbonitrile]
10 | 10 to 50 nM | CNc1nccn2ncc(Oc3cnc4nc(Nc5cc6c(c(C(F)(F)F)c5)C(C)(C)N(C)C6=O)n(C)c4c3Cl)c12 [Example I-234, 6-((7-chloro-1-methyl-6-((4-(methylamino)pyrazolo[1,5-a]pyrazin-3-yl)oxy)-1H-imidazo[4,5-b]pyridin-2-yl)amino)-2,3,3-trimethyl-4-(trifluoromethyl)isoindolin-1-one]
